The results in this text go back to EP0571593B1, “NEW NON IONIC IODIZED AGENTS FOR X-RAY CONTRASTING, METHOD FOR PREPARING THEM AND GALENICAL COMPOSITIONS CONTAINING THEM” (CENTRO INVESTIGACION JUSTESA IMAGEN S.A., priority 1991, dated 1993).

Data set [1] has as its system rat. Put plainly: ED50 after intracisternal (i.cis.) administration. In kind it is in vivo.
Data set [2] can be described thus: Viscosity of aqueous solutions. In kind it is physicochemical.
Data set [3] deals with Sprague-Dawley rats. The experiment in a line: Intravenous toxicity, lethal dose for 50% of the animals. In kind it is in vivo. The note with it: i.v. via the caudal vein at 2.2ml/min, mortality during seven days.
Data set [4] in a line: Iodine content. In kind it is physicochemical. The note with it: for Iodine Content (%): comparison table with IOTROLAN
Data set [5] is described as follows: Osmolality of aqueous solutions. In kind it is physicochemical.

As to `CN(C(=O)CC(=O)N(C)c1c(I)c(C(=O)NC(CO)C(O)CO)c(I)c(C(=O)NC(CO)C(O)CO)c1I)c1c(I)c(C(=O)NC(CO)C(O)CO)c(I)c(C(=O)NC(CO)C(O)CO)c1I` (stereo not drawn) [IOTROLAN, N,N'-dimethyl-N,N'-bis[3,5-(l-hydroxymethyl-2,3-dihydroxy-propyl-carbamoyl) -2,4,6-triiodo-phenyl]-diamide of malonic acid, reference compound], the “ED50, rat i.cis. (mg I/kg)” value in data set [1] was determined as 315 mg I/kg. The “Viscosity (mPa.S at 300 mg I/ml) 37°C” value in data set [2] was 8,1-9,2 mPa.S. Moreover, the “LD50, rat i.v. (g I/kg)” value in data set [3] is on record as 25-28 g I/kg. In addition, the “Iodine Content (%)” value in data set [4] worked out at 47%. Also, in data set [5], the “Osmolality (mOsm/kg at 300 mg I/ml) 37°C” value worked out at 320 mOsm/kg.

For the compound `CC(=O)Nc1c(I)c(C(=O)NCC(O)CO)c(I)c(C(=O)N(CC(=O)Nc2c(I)c(C(=O)NCC(O)CO)c(I)c(C(=O)NCC(O)CO)c2I)CC(O)CO)c1I` (centres unmarked) [EXAMPLE 36, N,N-bis-(2,3-dihydroxypropyl)-5-{3-[N-(2,3-dihydroxypropyl)carbamoyl]-5-acetamido-2,4,6-triiodobenzoyl-N-(2,3-dihidroxypropyl)aminoacetamido}-2,4,6-triiodoisophthalamide], the “ED50, rat i.cis. (mg I/kg)” value in data set [1] was 550 mg I/kg. In data set [2], the “Viscosity (mPa.S at 300 mg I/ml) 37°C” value is listed as 8,3-8,8 mPa.S and the “Viscosity mPa s (30°C) at 300mg I/ml” value was 8,8 mPa s. Moreover, in data set [3], the “LD50, rat i.v. (g I/kg)” value is listed as 25-27 g I/kg. For the same compound, in data set [4], the “% Iodine” value worked out at 51% and the “Iodine Content (%)” value is given as 51,0%. Further, in data set [5], the “Osmolality mosm/kg at 300mg I/ml” value was 125 mosm/kg and the “Osmolality (mOsm/kg at 300 mg I/ml) 37°C” value turned out to be 125 mOsm/kg.

As to `COCC(=O)Nc1c(I)c(C(=O)NCC(O)CO)c(I)c(C(=O)N(C)CC(=O)N(C)c2c(I)c(C(=O)NC(CO)C(O)CO)c(I)c(C(=O)NC(CO)C(O)CO)c2I)c1I` (centres unmarked) [EXAMPLE 9, N,N'-bis-(1-hydroxymethyl-2,3-dihydroxypropyl)-5-{3-[N-(2,3-dihydroxypropyl)carbamoyl]-5-methoxyacetamido-2,4,6-triiodobenzoyl-N-methylaminoacetyl-N-methylamino}-2,4,6-tri-iodoisophthalamide], the “ED50, rat i.cis. (mg I/kg)” value in data set [1] worked out at 350 mg I/kg. For the same compound, in data set [2], the “Viscosity (mPa.S at 300 mg I/ml) 37°C” value is listed as 8,2 mPa.S and the “Viscosity mPa s (30°C) at 300mg I/ml” value was 8,2 mPa s. In data set [3], the “LD50, rat i.v. (g I/kg)” value is given as 20-25 g I/kg. Besides, in data set [4], the “% Iodine” value was 49,6% and the “Iodine Content (%)” value was 49,6%. In addition, in data set [5], the “Osmolality mosm/kg at 300mg I/ml” value was 226 mosm/kg and the “Osmolality (mOsm/kg at 300 mg I/ml) 37°C” value was 226 mOsm/kg.

In the case of `COCC(=O)N(CCO)c1c(I)c(C(=O)NCC(O)CO)c(I)c(C(=O)N(CCO)CC(=O)N(CCO)c2c(I)c(C(=O)NCCO)c(I)c(C(=O)NCCO)c2I)c1I` (centres unmarked) [EXAMPLE 32, N,N'-bis-(2-hydroxyethyl)-5-{3-[N-(2,3-dihydroxypropyl)carbamoyl]-5-methoxyacetyl-N-(2-hydroxyethyl)amino-2,4,6-triiodobenzoyl-N-(2-hydroxyethyl)aminoacetyl-N-(2-hydroxyethyl)amino}-2,4,6-triiodoisophthalamide], the “Viscosity mPa s (30°C) at 300mg I/ml” value in data set [2] is 8,2 mPa s. Further, the “% Iodine” value in data set [4] came out at 50%. Moreover, the “Osmolality mosm/kg at 300mg I/ml” value in data set [5] is reported as 155 mosm/kg.

With `CN(CC(=O)N(C)c1c(I)c(C(=O)NCC(O)CO)c(I)c(C(=O)NCC(O)CO)c1I)C(=O)c1c(I)c(NC(=O)CO)c(I)c(C(=O)NCC(O)CO)c1I` (centres unmarked) [EXAMPLE 11, N,N'-bis-(2,3-dihydroxypropyl)-5-{3-[N-(2,3-dihydroxypropyl)carbamoyl]-5-hydroxyacetamido-2,4,6-triiodobenzoyl-N-methylaminoacetyl-N-methylamino}-2,4,6-triiodo isophthalamide], in data set [1], the “ED50, rat i.cis. (mg I/kg)” value is recorded as 500 mg I/kg. Further, in data set [2], the “Viscosity (mPa.S at 300 mg I/ml) 37°C” value was 7,0 mPa.S and the “Viscosity mPa s (30°C) at 300mg I/ml” value is 6,9 mPa s. Besides, the “LD50, rat i.v. (g I/kg)” value in data set [3] is on record as 23 g I/kg. In data set [4], the “% Iodine” value was determined as 52% and the “Iodine Content (%)” value is 52,1%. Moreover, in data set [5], the “Osmolality mosm/kg at 300mg I/ml” value is listed as 152 mosm/kg and the “Osmolality (mOsm/kg at 300 mg I/ml) 37°C” value is recorded as 152 mOsm/kg.

As to `COCC(=O)Nc1c(I)c(C(=O)NC(CO)C(O)CO)c(I)c(C(=O)N(C)CC(=O)N(C)c2c(I)c(C(=O)NC(CO)C(O)CO)c(I)c(C(=O)NC(CO)C(O)CO)c2I)c1I` (centres unmarked) [EXAMPLE 10, N,N'-bis-(1-hydroxymethyl-2,3-dihydroxypropyl)-5-{3-[N-(1-hydroxymethyl-2,3-dihydroxypropyl)carbamoyl]-5-methoxyacetamido-2,4,6-triiodobenzoyl-N-methylaminoacetyl-N-methylamino}-2,4,6-triiodoisophthalamide], the “Viscosity mPa s (30°C) at 300mg I/ml” value in data set [2] is 8,9 mPa s. Further, in data set [4], the “% Iodine” value is 48,6%. Moreover, the “Osmolality mosm/kg at 300mg I/ml” value in data set [5] is 204 mosm/kg.

On to `CN(CC(=O)N(C)c1c(I)c(C(=O)N(C)CC(O)CO)c(I)c(C(=O)N(C)CC(O)CO)c1I)C(=O)c1c(I)c(NC(=O)CO)c(I)c(C(=O)NCC(O)CO)c1I` (centres unmarked) [EXAMPLE 24, N,N'-bis-(2,3-dihydroxypropyl)-N,N'-dimethyl-5-{3-[N-(2,3-dihydroxypropyl)carbamoyl]-5-hydroxyacetamido-2,4,6-triiodobenzoyl-N-methylaminoacetyl-N-methylamino}-triiodo isophthalamide], for which, in data set [2], the “Viscosity mPa s (30°C) at 300mg I/ml” value is listed as 7,1 mPa s. For the same compound, the “% Iodine” value in data set [4] is 51,1%. In addition, in data set [5], the “Osmolality mosm/kg at 300mg I/ml” value came to 165 mosm/kg.

Consider `COCC(=O)Nc1c(I)c(C(=O)NCC(=O)Nc2c(I)c(C(=O)NCC(O)CO)c(I)c(C(=O)NCC(O)CO)c2I)c(I)c(C(=O)NC(CO)C(O)CO)c1I` (centres unmarked) [EXAMPLE 6, N,N'-bis-(2,3-dihydroxypropyl)-5-{3-[N-(1-hydroxymethyl-2,3-dihydroxypropyl)carbamoyl]-5-methoxyacetamido-2,4,6-triiodobenzoylaminoacetamido}-2,4,6-triiodoisochthalamide], for which, in data set [2], the “Viscosity mPa s (30°C) at 300mg I/ml” value is listed as 9,5 mPa s. For the same compound, the “% Iodine” value in data set [4] is 51,5%. In data set [5], the “Osmolality mosm/kg at 300mg I/ml” value is 116 mosm/kg.
